Measured values as given in patent publication US9815842B2, “Pyrazolo pyrimidine derivatives and their use as MALT1 inhibitors” (Novartis AG, priority 2014, dated 2017).

Tests used:
[1] = target: C-domain of MALT1 (amino acids 329-824) (Homo sapiens (Human), UniProt Q9UDY8); experiment: MALT1 biochemical assay (fluorescence lifetime enzyme activity assay); conditions: 60 min pre-incubation, 2.5 nM enzyme, 1 μM peptide substrate
Protocol: The readout parameter is the increase of fluorescence lifetime over time, proportional to enzyme activity.
The assay employs a short peptide substrate labeled with the single fluorophore PT14 as a fluorescence lifetime probe sensitive to the cleavage state of the substrate (PT14: 6-(9-oxo-9H-acridin-10-yl)-hexanoate, AssayMetrics, UK). […] The assay buffer consists of 200 mM Tris/HCl at pH 7.5, 0.8 M Na citrate, 100 μM EGTA, 100 μM DTT and 0.05% (w/v) CHAPS. […] Test compounds were dissolved in 100% (v/v) DMSO or a mixture containing 90% (v/v) DMSO and 10% (v/v) H2O at a stock concentration of 100 mM. Serial dilutions of test compounds were prepared using either 100% (v/v) DMSO or a mixture containing 90% (v/v) DMSO and 10% (v/v) H2O.

Human IL2 promoter = Human IL2 promoter reporter gene assay (RGA) in Jurkat cells; format: cell-based; conditions: Jurkat clone K22 290_H23, anti-CD28 mAb + PMA stimulation 5.5 h
Protocol: Human IL2 Promoter Reporter Gene Assay (RGA) in Jurkat Cells
The transfected Jurkat clone K22 290_H23 was propagated in RPMI 1640 supplemented with 10% heat inactivated fetal calf serum, 50 μM 2-mercaptoethanol and 1 mg/ml Geneticin. The cell concentration should not exceed 1×10e6/ml during culturing. The cells should not exceed passage 30. Prior to the assay the cells were washed and prepared to the concentration of 2×10e6 cells/ml.
Compound dilutions were made as 2×-concentrated solutions then diluted 1/2 by addition to cells. Two hundred and fifty μl of compound dilution and 250 μl of cells were mixed together in wells of a 96-deep well plate. Cells/compounds premix were incubated 30 min at 37° C. and 5% CO2 directly in the deep well plate.
After pre-incubation of cells with compounds, cells were stimulated with anti-CD28 mAb (clone 15E8) at 3 μg/ml+PMA at 1 μg/ml. Both co-stimulants were diluted in culture medium at a 10×-concentrated solution. 10 μl of co-stimulants were pipetted into the white 96-well plates and 100 μl of cell/compound mix was immediately added in duplicates. The cells were stimulated for 5.5 h at 37° C. and 5% CO2.
After cell stimulation, 50 μl of BriteLitePlus reagent (Perkin Elmer) was added to each well and the bioluminescence was measured with a Wallac EnVision reader (Perkin Elmer).

Sequence of C-domain of MALT1 (amino acids 329-824) (Q9UDY8 329-824): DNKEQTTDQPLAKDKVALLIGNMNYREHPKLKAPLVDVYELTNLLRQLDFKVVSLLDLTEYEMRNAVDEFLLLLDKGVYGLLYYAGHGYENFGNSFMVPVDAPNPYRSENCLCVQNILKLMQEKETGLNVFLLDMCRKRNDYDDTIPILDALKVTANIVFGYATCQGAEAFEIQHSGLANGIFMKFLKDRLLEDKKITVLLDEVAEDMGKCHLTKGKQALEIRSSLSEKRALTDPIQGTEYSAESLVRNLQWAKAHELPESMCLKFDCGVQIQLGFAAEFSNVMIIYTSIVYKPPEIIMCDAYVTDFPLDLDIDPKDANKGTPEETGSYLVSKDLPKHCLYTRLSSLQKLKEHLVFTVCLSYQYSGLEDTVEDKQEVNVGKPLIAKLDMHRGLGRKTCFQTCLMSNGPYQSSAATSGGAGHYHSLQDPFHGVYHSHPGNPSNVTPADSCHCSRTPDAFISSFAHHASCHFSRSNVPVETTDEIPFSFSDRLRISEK

| Structure (SMILES) | IC50 [1] [nM] | IC50 (Human IL2 promoter) [nM] |
| --- | --- | --- |
| C[C@H](O[C@@H]1CCOC1)c1c(NC(=O)Nc2cnc(-n3nccn3)c(Cl)c2)cnc2cc(Cl)nn12 [Example 100, 1-(5-chloro-6-(2H-1,2,3-triazol-2-yl)pyridin-3-yl)-3-(2-chloro-7-((S)-1-(((R)-tetrahydrofuran-3-yl)oxy)ethyl)pyrazolo[1,5-a]pyrimidin-6-yl)urea] | 19 | 84 |
| CO[C@@H](C)c1c(NC(=O)Nc2ccnc(C#N)c2)cnc2cc(Cl)nn12 [Example 105, (S)-1-(2-chloro-7-(1-methoxyethyl)pyrazolo[1,5-a]pyrimidin-6-yl)-3-(2-cyanopyridin-4-yl)urea] | 11 | 59 |
| CN(C)C1(c2c(NC(=O)Nc3cnc(-n4nccn4)c(C(F)(F)F)c3)cnc3cc(Cl)nn23)CC1 [Example 107, 1-(6-(2H-1,2,3-triazol-2-yl)-5-(trifluoromethyl)pyridin-3-yl)-3-(2-chloro-7-(1-(dimethylamino)cyclopropyl)pyrazolo[1,5-a]pyrimidin-6-yl)urea] | 13 | 60 |
| CC(C)c1c(NC(=O)Nc2cnc(-c3ccnn3C)c(Cl)c2)cnc2cc(Cl)nn12 [Example 29, 1-(5-chloro-6-(1-methyl-1H-pyrazol-5-yl)pyridin-3-yl)-3-(2-chloro-7-isopropylpyrazolo[1,5-a]pyrimidin-6-yl)urea] | 370 | – |
| CO[C@@H](C)c1c(NC(=O)Nc2cnc(-n3nccn3)c(Cl)c2)cnc2cc(Cl)nn12 [Example 10, (S)-1-(5-chloro-6-(2H-1,2,3-triazol-2-yl)pyridin-3-yl)-3-(2-chloro-7-(1-methoxyethyl)pyrazolo[1,5-a]pyrimidin-6-yl)urea] | – | 19 |
| CO[C@H](c1c(NC(=O)Nc2cnc(-n3nccn3)c(Cl)c2)cnc2cc(Cl)nn12)[C@@H](C)OC [Example 98, 1-(5-chloro-6-(2H-1,2,3-triazol-2-yl)pyridin-3-yl)-3-(2-chloro-7-((1R,2R)-1,2-dimethoxypropyl)pyrazolo[1,5-a]pyrimidin-6-yl)urea] | – | 44 |
| CN1CCOCC1c1c(NC(=O)Nc2cnc(-n3nccn3)c(Cl)c2)cnc2cc(Cl)nn12 (stereo not drawn) [Example 125, 1-(5-chloro-6-(2H-1,2,3-triazol-2-yl)pyridin-3-yl)-3-(2-chloro-7-(4-methylmorpholin-3-yl)pyrazolo[1,5-a]pyrimidin-6-yl)urea] | 9 | 138 |
| C[C@H](O[C@H]1CCOC1)c1c(NC(=O)Nc2cnc(-n3nccn3)c(Cl)c2)cnc2cc(Cl)nn12 [Example 101, 1-(5-chloro-6-(2H-1,2,3-triazol-2-yl)pyridin-3-yl)-3-(2-chloro-7-((S)-1-(((S)-tetrahydrofuran-3-yl)oxy)ethyl)pyrazolo[1,5-a]pyrimidin-6-yl)urea] | 5 | 25 |
| O=C(Nc1cnc(-n2nccn2)c(Cl)c1)Nc1cnc2cc(Cl)nn2c1C1CCOCC1 [Example 58, 1-(5-chloro-6-(2H-1,2,3-triazol-2-yl)pyridin-3-yl)-3-(2-chloro-7-(tetrahydro-2H-pyran-4-yl)pyrazolo[1,5-a]pyrimidin-6-yl)urea] | – | 267 |
| CO[C@@H](C)c1c(NC(=O)Nc2ccnc(C(F)F)c2)cnc2cc(Cl)nn12 [Example 92, (S)-1-(2-chloro-7-(1-methoxyethyl)pyrazolo[1,5-a]pyrimidin-6-yl)-3-(2-(difluoromethyl)pyridin-4-yl)urea] | 9 | 46 |
| CC(C)c1c(NC(=O)Nc2cnc(-n3nccn3)c(Cl)c2)cnc2cc(Cl)nn12 [Example 21, 1-(5-chloro-6-(2H-1,2,3-triazol-2-yl)pyridin-3-yl)-3-(2-chloro-7-isopropylpyrazolo[1,5-a]pyrimidin-6-yl)urea] | – | 104 |
| CO[C@@H](C)c1c(NC(=O)Nc2cnc(OC(F)F)c(Cl)c2)cnc2cc(Cl)nn12 [Example 93, (S)-1-(5-chloro-6-(difluoromethoxy)pyridin-3-yl)-3-(2-chloro-7-(1-methoxyethyl)pyrazolo[1,5-a]pyrimidin-6-yl)urea] | 1 | 157 |
| CO[C@@H](C)c1c(NC(=O)Nc2cc(Cl)cnc2OCCN(C)C)cnc2cc(Cl)nn12 [Example 99, (S)-1-(5-chloro-2-(2-(dimethylamino)ethoxy)pyridin-3-yl)-3-(2-chloro-7-(1-methoxyethyl)pyrazolo[1,5-a]pyrimidin-6-yl)urea] | 21 | 41 |
| COCCO[C@@H](C)c1c(NC(=O)Nc2cnc(OC(F)F)c(Cl)c2)cnc2cc(Cl)nn12 [Example 97, (S)-1-(5-chloro-6-(difluoromethoxy)pyridin-3-yl)-3-(2-chloro-7-(1-(2-methoxyethoxy)ethyl)pyrazolo[1,5-a]pyrimidin-6-yl)urea] | 3 | 68 |
| COCC1(c2c(NC(=O)Nc3cncc(C(F)(F)F)c3)cnc3cc(Cl)nn23)CCCO1 (stereo not drawn) [Example 106, 1-(2-chloro-7-(2-(methoxymethyl)tetrahydrofuran-2-yl)pyrazolo[1,5-a]pyrimidin-6-yl)-3-(5-(trifluoromethyl)pyridin-3-yl)urea] | 8 | 484 |
| COCC(OC)c1c(NC(=O)Nc2ccnc(C(F)(F)F)c2)cnc2cc(Cl)nn12 (stereo not drawn) [Example 109, 1-(2-chloro-7-(1,2-dimethoxyethyl)pyrazolo[1,5-a]pyrimidin-6-yl)-3-(2-(trifluoromethyl)pyridin-4-yl)urea] | 53 | 218 |
| COC[C@@H](C)c1c(NC(=O)Nc2cnc(-n3nccn3)c(C(F)(F)F)c2)cnc2cc(Cl)nn12 [Example 110, (S)-1-(6-(2H-1,2,3-triazol-2-yl)-5-(trilfuoromethyl)pyridin-3-yl)-3-(2-chloro-7-(1-methoxypropan-2-yl)pyrazolo[1,5-a]pyrimidin-6-yl)urea] | 9 | 115 |
| CO[C@@H](C)c1c(NC(=O)Nc2ccnc(C(F)(F)F)c2)cnc2cc(F)nn12 [Example 7, (S)-1-(2-fluoro-7-(1-methoxyethyl)pyrazolo[1,5-a]pyrimidin-6-yl)-3-(2-(trifluoromethyl)pyridin-4-yl)urea] | 8 | 30 |
| CO[C@H](C)c1c(NC(=O)Nc2cnc(-n3nccn3)c(Cl)c2)cnc2cc(Cl)nn12 [Example 46, (R)-1-(5-chloro-6-(2H-1,2,3-triazol-2-yl)pyridin-3-yl)-3-(2-chloro-7-(1-methoxyethyl)pyrazolo[1,5-a]pyrimidin-6-yl)urea] | – | 82 |
| Cc1cc2ncc(NC(=O)Nc3cnc(-n4nccn4)c(Cl)c3)c(C3(C)CCCO3)n2n1 (stereo not drawn) [Example 104, 1-(5-chloro-6-(2H-1,2,3-triazol-2-yl)pyridin-3-yl)-3-(2-methyl-7-(2-methyltetrahydrofuran-2-yl)pyrazolo[1,5-a]pyrimidin-6-yl)urea] | 2 | 24 |
| COC[C@H](C)c1c(NC(=O)Nc2cnc(-n3nccn3)c(C(F)(F)F)c2)cnc2cc(Cl)nn12 [Example 111, (R)-1-(6-(2H-1,2,3-triazol-2-yl)-5-(trifluoromethyl)pyridin-3-yl)-3-(2-chloro-7-(1-methoxypropan-2-yl)pyrazolo[1,5-a]pyrimidin-6-yl)urea] | 3 | 54 |
| CO[C@@H](C)c1c(NC(=O)Nc2cncc(C#N)c2)cnc2cc(Cl)nn12 [Example 8, (S)-1-(2-chloro-7-(1-methoxyethyl)pyrazolo[1,5-a]pyrimidin-6-yl)-3-(5-cyanopyridin-3-yl)urea] | – | 33 |
| C[C@H](OC[C@@H]1CCOC1)c1c(NC(=O)Nc2cnc(-n3nccn3)c(Cl)c2)cnc2cc(Cl)nn12 [Example 103, 1-(5-chloro-6-(2H-1,2,3-triazol-2-yl)pyridin-3-yl)-3-(2-chloro-7-((S)-1-(((R)-tetrahydrofuran-3-yl)methoxy)ethyl)pyrazolo[1,5-a]pyrimidin-6-yl)urea] | 5 | 50 |
| O=C(Nc1cnc(-n2nccn2)c(Cl)c1)Nc1cnc2cc(Cl)nn2c1C1COCCN1 (stereo not drawn) [Example 123, 1-(5-chloro-6-(2H-1,2,3-triazol-2-yl)pyridin-3-yl)-3-(2-chloro-7-(morpholin-3-yl)pyrazolo[1,5-a]pyrimidin-6-yl)urea] | – | 199 |
| COCC(OC)c1c(NC(=O)Nc2cnc(-n3nccn3)c(C(F)(F)F)c2)cnc2cc(Cl)nn12 (stereo not drawn) [Example 108, 1-(6-(2H-1,2,3-triazol-2-yl)-5-(trifluoromethyl)pyridin-3-yl)-3-(2-chloro-7-(1,2-dimethoxyethyl)pyrazolo[1,5-a]pyrimidin-6-yl)urea] | 8 | 52 |
